From patent US9770026B2, “Substituted pyrimidine compound and uses thereof” (Shenyang Sinochem Agrochemicals R&D Co., Ltd., priority 2012, dated 2017)

Experiments:
[1] = tested on: corn rust; test: protectant activity in vivo against corn rust
[2] = tested on: Green peach aphids (Myzus Persicae Sulzer); test: bioactivity test against green peach aphid, airbrush foliar spray; type: in vivo
Outline: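 Death rate was scored at 48 hrs, held at 25±1 C and 60±5% RH, following airbrush foliar spray (0.5 mL, 10 psi) onto cabbage leaf discs bearing about 15-30 aphids. Test solutions: compound dissolved in 1:1 acetone:methanol, brought to concentration with 0.1% tween 80 water.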

[3] = tested on: carmine spider mite; test: bioactivity test against carmine spider mite, airbrush spray; type: in vivo; details: for control against carmine spider mite: mortality after 72 hrs
Outline: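 Broadbean seedlings infested with adult mites were sprayed with compound (acetone/methanol stock diluted in 0.1% Tween 80 water) by airbrush at 0.7 kg/cm^2, 0.5 ml. Three replicates were run. Mortality was scored after 72 hrs.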

[4] = tested on: armyworm; test: bioactivity test against armyworm, airbrush spray; type: in vivo; details: for pest or weed control at 10 µg/mL / pest or weed control at 100 µg/mL / pest or weed control at 600 µg/mL: 72 h, read-out: Insecticidal activity against armyworm (%); for control (test results against armyworm): mortality after 72 h
[5] = tested on: Diamond back moth; test: insecticidal activity against diamond back moth, airbrush spray; type: in vivo; details: for control (test results against diamond back moth): mortality after 72 hrs
Outline: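 Airbrush leaf-disc spray test: both faces of 2 cm cabbage discs received 0.5 ml of test solution at 0.7 kg/cm^2. Solutions were made in acetone:methanol (1:1) and brought to concentration with 0.1% Tween 80 in water. Ten second-instar larvae per disc, triplicates, were held at 25° C and 60˜70% R.H., with mortality recorded at 72 hrs.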

[6] = tested on: wheat powdery mildew; test: protectant activity in vivo against wheat powdery mildew
[7] = Tetranychus cinnabarinus, 72 h, 100 mg/L, contrastive test, read-out: Insecticidal activity against carmine spider mite (% )
[8] = Tetranychus cinnabarinus, 72 h, 600 mg/L, contrastive test, read-out: Insecticidal activity against carmine spider mite (% )
[9] = 2.5 ppm, death rate after 48 hrs
[10] = 10 ppm, death rate after 48 hrs
[11] = 100 ppm, death rate after 48 hrs
[12] = 600 ppm, death rate after 48 hrs

SMILES | pest or weed control at 100 µg/mL [3, 7] [%] | pest or weed control at 600 µg/mL [3, 8] [%] | pest or weed control at 10 µg/mL ([4]; 10 mg/L) [%] | pest or weed control at 100 µg/mL ([4]; 100 mg/L) [%] | pest or weed control at 600 µg/mL ([4]; 600 mg/L) [%] | protectant activity against corn rust in vivo ([1]; 100 ppm) [%] | protectant activity against corn rust in vivo ([1]; 400 ppm) [%] | Insecticidal activity against peach aphid (%) ([2]; 1.25 mg/L, contrastive test) | Insecticidal activity against peach aphid (%) ([2]; 2.5 mg/L, contrastive test) | Insecticidal activity against peach aphid (%) ([2]; 5 mg/L, contrastive test) | Insecticidal activity against peach aphid (%) ([2]; 10 mg/L, contrastive test) | Insecticidal activity against peach aphid (%) ([2]; 100 mg/L, contrastive test) | Insecticidal activity against peach aphid (%) ([2]; 600 mg/L, contrastive test) | control (test results against green peach aphid) [2, 9] [%] | control (test results against green peach aphid) [2, 10] [%] | control (test results against green peach aphid) [2, 11] [%] | control (test results against green peach aphid) [2, 12] [%] | Insecticidal activity against carmine spider mite (% ) ([3]; 2.5 mg/L) [%] | Insecticidal activity against carmine spider mite (% ) ([3]; 5 mg/L) [%] | control against carmine spider mite ([3]; 100 ppm) [%] | other results
FC(F)(F)c1ccc(Oc2ccc(CCNc3ncnc4ccccc34)cc2)nc1 [CK12, reference compound] | 41 | 100 | 0 | 20 | 86 |  |  |  |  |  |  |  |  |  |  |  |  |  |  |  | pest or weed control at 6.25 µg/mL ([1]; Zea mays, 168 h, read-out: control effect against corn rust (%), 6.25 mg/L, protectant activity): 75%; pest or weed control at 25 µg/mL ([1]; Zea mays, 168 h, read-out: control effect against corn rust (%), 25 mg/L, protectant activity): 85%; pest or weed control at 100 µg/mL ([1]; Zea mays, 168 h, read-out: control effect against corn rust (%), 100 mg/L, protectant activity): 100%; pest or weed control at 400 µg/mL ([1]; Zea mays, 168 h, read-out: control effect against corn rust (%), 400 mg/L, protectant activity): 100%; pest or weed control at 10 µg/mL ([2]; Myzus persicae, foliar, 48 h, 10 mg/L, contrastive test, read-out: Insecticidal activity against peach aphid (%)): 73%; pest or weed control at 100 µg/mL ([2]; Myzus persicae, foliar, 48 h, 100 mg/L, contrastive test, read-out: Insecticidal activity against peach aphid (%)): 100%; pest or weed control at 600 µg/mL ([2]; Myzus persicae, foliar, 48 h, 600 mg/L, contrastive test, read-out: Insecticidal activity against peach aphid (%)): 100%; pest or weed control at 10 µg/mL ([5]; 72 h, 10 mg/L): 0%; pest or weed control at 100 µg/mL ([5]; 72 h, 100 mg/L): 35%; pest or weed control at 600 µg/mL ([5]; 72 h, 600 mg/L): 100%; pest or weed control at 6.25 µg/mL ([6]; Triticum aestivum, 168 h, read-out: control effect against wheat powdery mildew (%), 6.25 mg/L, protectant activity): 0%; pest or weed control at 25 µg/mL ([6]; Triticum aestivum, 168 h, read-out: control effect against wheat powdery mildew (%), 25 mg/L, protectant activity): 0%; pest or weed control at 100 µg/mL ([6]; Triticum aestivum, 168 h, read-out: control effect against wheat powdery mildew (%), 100 mg/L, protectant activity): 30%; pest or weed control at 400 µg/mL ([6]; Triticum aestivum, 168 h, read-out: control effect against wheat powdery mildew (%), 400 mg/L, protectant activity): 80%
CCc1ncnc(NCCc2ccc(Oc3ccc(C(F)(F)F)cn3)cc2)c1Cl [Compound I-6757] | 100 | 100 | 28 | 100 | 100 | 100 | 100 | 100 | 100 | 100 | 100 | 100 | 100 | 100 | 100 | 100 | 100 | 75 | 80 | 100 | pest or weed control at 5 ppm ([2]; Myzus persicae, foliar, 48 h, 5 ppm, death rate after 48 hrs): 100%; control against carmine spider mite ([3]; 600 ppm): 100%; pest or weed control at 10 µg/mL ([3]; Tetranychus cinnabarinus, 72 h, 10 mg/L, contrastive test, read-out: Insecticidal activity against carmine spider mite (% )): 97%; control (test results against armyworm) ([4]; 100 ppm): 100%; control (test results against armyworm) ([4]; 600 ppm): 100%; control (test results against diamond back moth) ([5]; 100 ppm): 100%; control (test results against diamond back moth) ([5]; 600 ppm): 100%; protectant activity against wheat powdery mildew in vivo ([6]; 100 ppm): 100%; protectant activity against wheat powdery mildew in vivo ([6]; 400 ppm): 100%
CCc1ncnc(NCCc2ccc(Oc3ccc(C(F)(F)F)cn3)cc2)c1Cl [Compound I-6756] |  |  |  |  |  | 100 | 100 | 100 | 100 | 100 | 100 | 100 | 100 | 100 | 100 | 100 | 100 | 71 | 88 | 100 | control (test results against green peach aphid) ([2]; 5 ppm, death rate after 48 hrs): 100%; Insecticidal activity against carmine spider mite (% ) ([3]; 10 mg/L, contrastive test): 100%; Insecticidal activity against carmine spider mite (% ) ([3]; 100 mg/L, contrastive test): 100%; Insecticidal activity against carmine spider mite (% ) ([3]; 600 mg/L, contrastive test): 100%; control against carmine spider mite ([3]; 10 ppm): 100%; control against carmine spider mite ([3]; 600 ppm): 100%; Insecticidal activity against armyworm (%) ([4]; 10 mg/L): 28%; Insecticidal activity against armyworm (%) ([4]; 100 mg/L): 100%; Insecticidal activity against armyworm (%) ([4]; 600 mg/L): 100%; control (test results against armyworm) ([4]; 100 ppm): 100%; control (test results against armyworm) ([4]; 600 ppm): 100%; control (test results against diamond back moth) ([5]; 100 ppm): 100%; control (test results against diamond back moth) ([5]; 600 ppm): 100%; protectant activity against wheat powdery mildew in vivo ([6]; 100 ppm): 100%; protectant activity against wheat powdery mildew in vivo ([6]; 400 ppm): 100%
CC(Cl)c1ncnc(NCCc2ccc(Oc3ncc(C(F)(F)F)cc3Cl)cc2)c1Cl (stereo not drawn) [CK44, reference compound] |  |  |  |  |  |  |  |  | 0 | 19 | 35 | 98 | 100 |  |  |  |  |  |  |  | control effect against corn rust (%) ([1]; 400 mg/L, protectant activity): 85%; Insecticidal activity against carmine spider mite (% ) ([3]; 600 mg/L, contrastive test): 0%; Insecticidal activity against armyworm (%) ([4]; 600 mg/L): 0%; Insecticidal activity against diamond back moth (%) ([5]; 10 mg/L): 10%; Insecticidal activity against diamond back moth (%) ([5]; 100 mg/L): 25%; Insecticidal activity against diamond back moth (%) ([5]; 600 mg/L): 80%; control effect against wheat powdery mildew (%) ([6]; 400 mg/L, protectant activity): 0%
